This passage reports IC50 results from patent US7582645B2, “Pyrimidine derivatives for treatment of hyperproliferative disorders” (Bayer Pharmaceuticals Corporation, priority 2003, dated 2009).

Structures are written as SMILES.

For orientation: IC50 means the concentration that inhibits the measured activity by half. A higher IC50 goes with weaker potency in that assay.

In one test the test system is HCT116 cells. The test can be described thus: HCT116 cytotoxic activity assay (Alamar Blue, 72 h). The settings on record: Homo sapiens, HCT-116, 72 h compound exposure, greater than 500 nM but less than or equal to 2 μM. Type of test: cell-based. The method, then: Representative compounds of this invention were tested for cytotoxicity using the above-described assay procedure with the following results: […]
In general terms: Resazurin is reduced to fluorescent resorufin, in cell work by metabolically active cells.
Molecule `Cc1cc(Oc2ccc(Nc3cc(-c4ccccc4N)nc(N)n3)cc2)ccn1` [Example 322, 6-(2-aminophenyl)-N4*-{4-[(2-methylpyridin-4-yl)oxy]phenyl} pyrimidine-2,4-diamine] registered an IC50 of 500 to 2000 nM. The molecule `Nc1nc(Nc2ccc(Cc3ccc(F)cc3)cc2)cc(-c2ccccc2)n1` [Example 91, N^4-[4-(4-fluorobenzyl)phenyl]-6-phenylpyrimidine-2,4-diamine] gave an IC50 of 500 to 2000 nM. With `NC(=O)c1cc(Oc2cccc(Nc3cc(-c4cccc(OCc5ccccc5)c4)nc(N)n3)c2)ccn1` [Example 281, 4-[3-({2-amino-6-[3-(benzyloxy)phenyl]pyrimidin-4-yl}amino)phenoxy]pyridine-2-carboxamide], the concentration for half-maximal inhibition (IC50) fell in the range of 500 to 2000 nM.

`COc1ccccc1-c1cc(Nc2cccc(Oc3ccnc(C(N)=O)c3)c2)nc(N)n1` [Example 291, 4-(3-{[2-amino-6-(2-methoxyphenyl)pyrimidin-4-yl]amino}phenoxy) pyridine-2-carboxamide]: the IC50 was in the range of 500 to 2000 nM.

The same test, now with this note: Homo sapiens, HCT-116, 72 h compound exposure, greater than 2 μM.
For `CC(C)NCc1cc(Oc2ccc(Nc3cc(-c4ccccc4)nc(N)n3)cc2)ccn1` [Example 44, N^4-[4-({2-[(isopropylamino)methyl]pyridin-4-yl}oxy)phenyl]-6-phenylpyrimidine-2,4-diamine], the IC50 is above 2000 nM. On to `NC(=O)c1cc(Oc2cccc(Nc3cc(-c4ccc(F)cc4)nc(N)n3)c2)ccn1` [Example 74, 4-(3-{[2-amino-6-(4-fluorophenyl)pyrimidin-4-yl]amino}phenoxy) pyridine-2-carboxamide], for which the IC50 is above 2000 nM.

Staying with this test, now noted: Homo sapiens, HCT-116, 72 h compound exposure, less than or equal to 500 nM.
Take `Nc1nc(Nc2ccc(Oc3ccnc(C(F)(F)F)c3)cc2)cc(-c2cc(F)cc(F)c2)n1` [Example 218, 6-(3,5-difluorophenyl)-N4*-(4-{[2-(trifluoromethyl)pyridin-4-yl]oxy}phenyl)pyrimidine-2,4-diamine]: the IC50 is at most 500 nM. Regarding `Nc1ccc(Cc2ccc(Nc3cc(-c4ccccc4)nc(N)n3)cc2)cc1` [Example 88, N^4*-[4-(4-aminobenzyl)phenyl]-6-phenylpyrimidine-2,4-diamine], the IC50 is at most 500 nM. The molecule `Nc1nc(Nc2ccc(Oc3ccnc(/C=C/CCO)c3)cc2)cc(-c2ccccc2)n1` [Example 58, (3E)-4-(4-{4-[(2-amino-6-phenylpyrimidin-4-yl)amino]phenoxy}pyridin-2-yl)but-3-en-1-ol] came in with an IC50 of at most 500 nM.

With `CC1CCCN1c1cc(Oc2cccc(Nc3cc(-c4ccccc4)nc(N)n3)c2)ccn1` (stereo not drawn) [Example 125, N4*-(3-{[2-(2-methylpyrrolidin-1-yl)pyridin-4-yl]oxy}phenyl)-6-phenylpyrimidine-2,4-diamine], the IC50 is at most 500 nM. As for `CN(C)C(=O)NCc1cc(Oc2ccc(Nc3cc(-c4ccccc4)nc(N)n3)cc2)ccn1` [Example 99, N′-[(4-{4-[(2-amino-6-phenylpyrimidin-4-yl)amino]phenoxy}pyridin-2-yl)methyl]-N,N-dimethylurea], the IC50 is at most 500 nM.

Regarding `Cc1ccc(-c2cc(Nc3cccc(Oc4ccnc(C(N)=O)c4)c3)nc(N)n2)cc1N` [Example 302, 4-(3-{[2-amino-6-(3-amino-4-methylphenyl)pyrimidin-4-yl]amino}phenoxy)pyridine-2-carboxamide], the half-inhibitory concentration (IC50) was at most 500 nM.

Consider `Nc1ccc(-c2cc(Nc3ccc(Oc4ccnc(C(F)(F)F)c4)cc3)nc(N)n2)cn1` [Example 181, 6-(6-aminopyridin-3-yl)-N4*-(4-{[2-(trifluoromethyl)pyridin-4-yl]oxy}phenyl)pyrimidine-2,4-diamine], for which the IC50 is at most 500 nM. Consider `Cc1ccc(-c2cc(Nc3ccc(Oc4ccnc(C#N)c4)cc3)nc(N)n2)cc1` [Example 249, 4-(4-{[2-amino-6-(4-methylphenyl)pyrimidin-4-yl]amino}phenoxy) pyridine-2-carbonitrile], for which the IC50 was at most 500 nM.

For `COc1cccc(-c2cc(Nc3ccc(Oc4ccnc(C#N)c4)cc3)nc(N)n2)c1` [Example 234, 4-(4-{[2-amino-6-(3-methoxyphenyl)pyrimidin-4-yl]amino}phenoxy) pyridine-2-carbonitrile], the IC50 is at most 500 nM.
